Results as given in US20090264477A1, “BETA ADRENERGIC RECEPTOR AGONISTS FOR TREATMENT OF PAIN AND/OR INFLAMMATION” (Warsaw Orthopedic, Inc., An Indiana Corporation, priority 2008, published 2009).

Legend:
[1] = system: rat Chronic Constriction Injury model (Bennett Model); assay: Hargreaves test (thermal paw withdrawal latency, thermal hyperalgesia) in rat Chronic Constriction Injury model; type: in vivo, Wistar rats
Excerpt: The inventors evaluated the efficacy of a various beta-2-adrenergic receptor agonists and compared them to clonidine (an alpha-2-agonist) and saline in the rat Chronic Constriction Injury model (i.e., Bennett Model) using Wistar rats. The purpose: To determine whether the beta-2-adrenergic receptor agonists can improve pain associated behavioral responses in a rat model of neuropathic pain.
The doses given would mimic those achievable by a continuous release drug depot containing a biodegradable polymer (7 rats in each group).

[2] = system: rat Chronic Constriction Injury model (Bennett Model); assay: von Frey test (mechanical threshold, mechanical allodynia) in rat Chronic Constriction Injury model; type: in vivo, Wistar rats
Protocol: The inventors evaluated the efficacy of a various beta-2-adrenergic receptor agonists and compared them to clonidine (an alpha-2-agonist) and saline in the rat Chronic Constriction Injury model (i.e., Bennett Model) using Wistar rats.
Hargreaves tests were conducted on days 7 and 14; […], where some drug compositions having predominantly beta-2 agonist activity were compared to clonidine a drug composition that has predominantly alpha-2 agonist activity and saline. The doses given would mimic those achievable by a continuous release drug depot containing a biodegradable polymer (7 rats in each group). […]
FIG. 4 is a graphic representation of the mechanical threshold as a percentage from baseline in rats given clonidine 0.02 mg/kg, ritodrine 5 mg/kg, ritodrine 2 mg/kg, salbutamol 10 mg/kg, salbutamol 5 mg/kg, terbutaline 0.5 mg/kg, terbutaline 0.1 mg/kg, and saline subcutaneously every day for 15 days. […]

[3] = 5 mg/kg subcutaneous every day for 15 days, day 14

Structure (SMILES): CC(NCCc1ccc(O)cc1)C(O)c1ccc(O)cc1 (centres unmarked) [ritodrine]
- pain behavioral response for thermal hyperalgesia (thermal paw withdrawal latency, percentage of baseline) compared with saline group ([1]; 2 mg/kg subcutaneous every day for 15 days, day 7): statistically significant result of decreasing pain responses
- pain behavioral response for thermal hyperalgesia (thermal paw withdrawal latency, percentage of baseline) compared with saline group [1, 3]: statistically significant result of decreasing pain responses
- pain behavioral response for mechanical allodynia (mechanical threshold, percentage of baseline) compared with saline group [2, 3]: statistically significant result of decreasing pain responses

Structure (SMILES): Clc1cccc(Cl)c1N=C1NCCN1 [clonidine, 2,6-dichloro-N-2-imidazolidinyldenebenzenamine]
- pain behavioral response for thermal hyperalgesia (thermal paw withdrawal latency, percentage of baseline) compared with saline group ([1]; 0.02 mg/kg subcutaneous every day for 15 days, day 14): statistically significant result of decreasing pain responses

Structure (SMILES): CC(C)(C)NCC(O)c1cc(O)cc(O)c1 (centres unmarked) [terbutaline]
- pain behavioral response for thermal hyperalgesia (thermal paw withdrawal latency, percentage of baseline) compared with saline group ([1]; 0.1 mg/kg subcutaneous every day for 15 days, days 7 and 14): statistically significant result of decreasing pain responses
- pain behavioral response for thermal hyperalgesia (thermal paw withdrawal latency, percentage of baseline) compared with saline group ([1]; 0.5 mg/kg subcutaneous every day for 15 days, days 7 and 14): statistically significant result of decreasing pain responses
- pain behavioral response for mechanical allodynia (mechanical threshold, percentage of baseline) compared with saline group ([2]; 0.5 mg/kg subcutaneous every day for 15 days, day 14): statistically significant result of decreasing pain responses

Structure (SMILES): CC(C)(C)NCC(O)c1ccc(O)c(CO)c1 (centres unmarked) [salbutamol]
- pain behavioral response for thermal hyperalgesia (thermal paw withdrawal latency, percentage of baseline) compared with saline group ([1]; 5 mg/kg subcutaneous every day for 15 days, days 7 and 14): statistically significant result of decreasing pain responses
- pain behavioral response for thermal hyperalgesia (thermal paw withdrawal latency, percentage of baseline) compared with saline group ([1]; 10 mg/kg subcutaneous every day for 15 days, days 7 and 14): statistically significant result of decreasing pain responses
- pain behavioral response for mechanical allodynia (mechanical threshold, percentage of baseline) compared with saline group [2, 3]: statistically significant result of decreasing pain responses
- pain behavioral response for mechanical allodynia (mechanical threshold, percentage of baseline) compared with saline group ([2]; 10 mg/kg subcutaneous every day for 15 days, days 8 and 15): statistically significant result of decreasing pain responses
